Data taken from patent US8658604B2, “Template-fixed beta-hairpin peptidomimetics with protease inhibitory activity” (Polyphor Ltd, priority 2005, dated 2014).
Where a SMILES comes first, the peptide text is derived from it.

Key:
[1] = test system: Tryptase, from human lung; experiment: Enzymatic assay, tryptase; conditions: at 100 μM
[2] = test system: HELA cells (Acc57); experiment: Cytotoxicity assay (MTT reduction), HELA cells; type: cell-based; conditions: Hela cells
Procedure: The cytotoxicity of the peptides to HELA cells (Acc57) and COS-7 cells (CRL-1651) was determined using the MTT reduction assay [see ref. 2 and 3, below]. Briefly the method was as follows: HELA cells and COS-7 cells were seeded at 7.0×10^3 and, respectively, 4.5×10^3 cells per well and grown in 96-well microtiter plates for 24 hours at 37° C. at 5% CO2. At this point, time zero (Tz) was determined by MTT reduction (see below). The supernatant of the remaining wells was discarded, and fresh medium and the peptides in serial dilutions of 12.5, 25 and 50 μM were pipetted into the wells. Each peptide concentration was assayed in triplicate. Incubation of the cells was continued for 48 hours at 37° C. at 5% CO2. Wells were then washed once with phosphate buffered saline (PBS) and subsequently 100 μl MTT reagent (0.5 mg/ml in medium RPMI1640 and, respectively, DMEM) were added to the wells. This was incubated at 37° C. for 2 hours and subsequently the medium was aspirated and 100 μl isopropanol were added to each well. The absorbance at 595 nm of the solubilized product was measured (OD595peptide). For each concentration averages were calculated from triplicates. The percentage of growth was calculated as follows: (OD595peptide-OD595Tz-OD595Empty well)/(OD595Tz-OD595Empty well)×100% and was plotted for each peptide concentration.
The LC 50 values (Lethal Concentration, defined as the concentration that kills 50% of the cells) were determined for each peptide by using the trend line function of EXCEL (Microsoft Office 2000) for the concentrations (50, 25, 12.5 and 0 μM), the corresponding growth percentages and the value −50, (=TREND(C50:C0,%50:%0,−50)).
The GI 50 (Growth Inhibition) concentrations were calculated for each peptide by using a trend line function for the concentrations (50, 25, 12.5 and 0 μg/ml), the corresponding percentages and the value 50, (=TREND (C50:C0,%50:%0,50).

[3] = target: Chymotrypsin, from human pancreas (Homo sapiens, UniProt P17538); experiment: Enzymatic assay, chymotrypsin
Chymotrypsin, from human pancreas, sequence (P17538 19-263): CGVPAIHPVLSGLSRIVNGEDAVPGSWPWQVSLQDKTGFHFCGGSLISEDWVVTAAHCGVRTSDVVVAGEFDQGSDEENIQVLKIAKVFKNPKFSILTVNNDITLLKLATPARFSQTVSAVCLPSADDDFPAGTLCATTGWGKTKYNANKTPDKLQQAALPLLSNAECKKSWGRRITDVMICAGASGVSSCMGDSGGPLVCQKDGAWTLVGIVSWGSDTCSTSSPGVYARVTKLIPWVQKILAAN

[4] = target: T1, Elastase from human neutrophils (Homo sapiens, UniProt P08246); experiment: Enzymatic assay, elastase; conditions: Elastase IC50
T1 sequence (P08246 30-267): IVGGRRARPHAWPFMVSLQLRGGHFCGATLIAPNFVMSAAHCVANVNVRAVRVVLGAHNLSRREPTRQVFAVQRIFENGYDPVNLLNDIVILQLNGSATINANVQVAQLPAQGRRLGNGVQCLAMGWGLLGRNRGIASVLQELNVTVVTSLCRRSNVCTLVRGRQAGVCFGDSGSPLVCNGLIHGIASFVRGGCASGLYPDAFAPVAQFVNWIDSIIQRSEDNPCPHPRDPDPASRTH

Structure (SMILES)	Tryptase at 100 μM % [1] [%]	Cytotoxicity LC50/GI50 Hela cells [2] [µM]	IC50 [3] [µM]	IC50 [4] [µM]
CC[C@H](C)[C@@H]1NC(=O)[C@@H]2CCCN2C(=O)[C@@H]2CCCN2C(=O)[C@H](CC(=O)O)NC(=O)[C@H]([C@H](C)O)NC(=O)[C@H](CCCCN)NC(=O)[C@H]([C@@H](C)O)NC(=O)[C@@H]2CSSC[C@H](NC1=O)C(=O)N[C@@H](CO)C(=O)N1CCC[C@@H]1C(=O)N1CCC[C@H]1C(=O)N[C@@H](Cc1ccccc1)C(=O)N2 [Ex. 24] (HELM PEPTIDE1{F.C.T.K.[C[C@H](O)[C@H](N[*:1])C(=O)[*:2]].D.P.P.I.C.S.[dP].P}$PEPTIDE1,PEPTIDE1,2:R3-10:R3|PEPTIDE1,PEPTIDE1,1:R1-13:R2$$$V2.0)	0	99		
CCCCCC[C@@H]1NC(=O)[C@H](CO)NC(=O)[C@H](C)NC(=O)[C@H]([C@@H](C)O)NC(=O)[C@@H]2CSSC[C@H](NC(=O)[C@H](CCC(N)=O)NC(=O)[C@@H]3CCCN3C(=O)[C@@H]3CCCN3C1=O)C(=O)N[C@@H](Cc1ccc(O)cc1)C(=O)N1CCC[C@@H]1C(=O)N1CCC[C@H]1C(=O)N[C@@H](CCCC)C(=O)N2 [Ex. 80] (HELM PEPTIDE1{[Nle].C.T.A.S.[CCCCCC[C@H](N[*:1])C(=O)[*:2]].P.P.Q.C.Y.[dP].P}$PEPTIDE1,PEPTIDE1,2:R3-10:R3|PEPTIDE1,PEPTIDE1,1:R1-13:R2$$$V2.0)		12	> 20	0.035
CCCC[C@@H]1NC(=O)[C@@H]2CCCN2C(=O)[C@H]2CCCN2C(=O)[C@H](Cc2ccc(O)cc2)NC(=O)[C@@H]2CSSC[C@H](NC1=O)C(=O)N[C@@H]([C@@H](C)O)C(=O)N[C@@H](C)C(=O)N[C@@H](CO)C(=O)N[C@@H]([C@@H](C)CC)C(=O)N1CCC[C@H]1C(=O)N1CCC[C@H]1C(=O)N[C@@H](Cc1ccccc1)C(=O)N2 [Ex. 89] (HELM PEPTIDE1{[Nle].C.T.A.S.I.P.P.F.C.Y.[dP].P}$PEPTIDE1,PEPTIDE1,2:R3-10:R3|PEPTIDE1,PEPTIDE1,1:R1-13:R2$$$V2.0)		51		0.043
CCCC[C@@H]1NC(=O)[C@@H]2CCCN2C(=O)[C@H]2CCCN2C(=O)[C@H](CCCNC(=N)N)NC(=O)[C@@H]2CSSC[C@H](NC1=O)C(=O)N[C@@H]([C@@H](C)O)C(=O)N[C@@H](C)C(=O)N[C@@H](CO)C(=O)N[C@@H]([C@@H](C)CC)C(=O)N1CCC[C@H]1C(=O)N1CCC[C@H]1C(=O)N[C@@H](CCC(N)=O)C(=O)N2 [Ex. 92] (HELM PEPTIDE1{[Nle].C.T.A.S.I.P.P.Q.C.R.[dP].P}$PEPTIDE1,PEPTIDE1,2:R3-10:R3|PEPTIDE1,PEPTIDE1,1:R1-13:R2$$$V2.0)		93		0.043
CCCC[C@@H]1NC(=O)[C@@H]2CCCN2C(=O)[C@H]2CCCN2C(=O)[C@H](CO)NC(=O)[C@@H]2CSSC[C@H](NC1=O)C(=O)N[C@@H]([C@@H](C)O)C(=O)N[C@@H](C)C(=O)N[C@@H](CO)C(=O)N[C@@H]([C@@H](C)CC)C(=O)N1CCC[C@H]1C(=O)N1CCC[C@H]1C(=O)N[C@@H](CCC(N)=O)C(=O)N2 [Ex. 93] (HELM PEPTIDE1{[Nle].C.T.A.S.I.P.P.Q.C.S.[dP].P}$PEPTIDE1,PEPTIDE1,2:R3-10:R3|PEPTIDE1,PEPTIDE1,1:R1-13:R2$$$V2.0)	5.6	100		0.041
CC[C@H](C)[C@@H]1NC(=O)[C@H](CO)NC(=O)[C@H](C)NC(=O)[C@H]([C@@H](C)O)NC(=O)[C@@H]2CSSC[C@H](NC(=O)[C@H](CCC(N)=O)NC(=O)[C@@H]3CCCN3C(=O)[C@@H]3CCCN3C1=O)C(=O)N[C@@H](Cc1ccc(O)cc1)C(=O)N1CCC[C@@H]1C(=O)N1CCC[C@H]1C(=O)N[C@@H](CCC(C)C)C(=O)N2 [Ex. 100] (HELM PEPTIDE1{[CC(C)CC[C@H](N[*:1])C(=O)[*:2]].C.T.A.S.I.P.P.Q.C.Y.[dP].P}$PEPTIDE1,PEPTIDE1,2:R3-10:R3|PEPTIDE1,PEPTIDE1,1:R1-13:R2$$$V2.0)		83		
CCCC[C@@H]1NC(=O)[C@@H]2CCCN2C(=O)[C@H]2CCCN2C(=O)[C@H](Cc2ccc(O)cc2)NC(=O)[C@@H]2CSSC[C@H](NC1=O)C(=O)N[C@@H]([C@@H](C)O)C(=O)N[C@@H](C)C(=O)N[C@@H](CO)C(=O)N[C@@H](CC1CCCC1)C(=O)N1CCC[C@H]1C(=O)N1CCC[C@H]1C(=O)N[C@@H](CCC(N)=O)C(=O)N2 [Ex. 112] (HELM PEPTIDE1{[Nle].C.T.A.S.[O=C([C@H](CC1CCCC1)N[*:1])[*:2]].P.P.Q.C.Y.[dP].P}$PEPTIDE1,PEPTIDE1,2:R3-10:R3|PEPTIDE1,PEPTIDE1,1:R1-13:R2$$$V2.0)		33		
CC[C@H](C)[C@@H]1NC(=O)[C@@H]2CCCN2C(=O)[C@H]2CCCN2C(=O)[C@H](Cc2ccc(O)cc2)NC(=O)[C@@H]2CSSC[C@H](NC1=O)C(=O)N[C@@H]([C@@H](C)O)C(=O)N[C@@H](C)C(=O)N[C@@H](CO)C(=O)N[C@@H](CC(C)C)C(=O)N1CCC[C@H]1C(=O)N1CCC[C@H]1C(=O)N[C@@H](Cc1ccc(O)cc1)C(=O)N2 [Ex. 114] (HELM PEPTIDE1{I.C.T.A.S.L.P.P.Y.C.Y.[dP].P}$PEPTIDE1,PEPTIDE1,2:R3-10:R3|PEPTIDE1,PEPTIDE1,1:R1-13:R2$$$V2.0)		34		0.047
CCCC[C@@H]1NC(=O)[C@@H]2CCCN2C(=O)[C@@H](CCCNC(=N)N)NC(=O)[C@H](Cc2ccc(O)cc2)NC(=O)[C@@H]2CSSC[C@H](NC1=O)C(=O)N[C@@H]([C@@H](C)O)C(=O)N[C@@H](C)C(=O)N[C@@H](CO)C(=O)N[C@@H]([C@@H](C)CC)C(=O)N1CCC[C@H]1C(=O)N1CCC[C@H]1C(=O)N[C@@H](CCC(N)=O)C(=O)N2 [Ex. 117] (HELM PEPTIDE1{A.S.I.P.P.Q.C.Y.[dR].P.[Nle].C.T}$PEPTIDE1,PEPTIDE1,7:R3-12:R3|PEPTIDE1,PEPTIDE1,1:R1-13:R2$$$V2.0)		29		0.033
CCCC[C@@H]1NC(=O)[C@@H]2CCCN2C(=O)[C@H]2CCCCN2C(=O)[C@H](Cc2ccc(O)cc2)NC(=O)[C@@H]2CSSC[C@H](NC1=O)C(=O)N[C@@H]([C@@H](C)O)C(=O)N[C@@H](C)C(=O)N[C@@H](CO)C(=O)N[C@@H]([C@@H](C)CC)C(=O)N1CCC[C@H]1C(=O)N1CCC[C@H]1C(=O)N[C@@H](CCC(N)=O)C(=O)N2 [Ex. 120] (HELM PEPTIDE1{A.S.I.P.P.Q.C.Y.[O=C([C@H]1CCCCN1[*:1])[*:2]].P.[Nle].C.T}$PEPTIDE1,PEPTIDE1,7:R3-12:R3|PEPTIDE1,PEPTIDE1,1:R1-13:R2$$$V2.0)		38		0.029
CCCC[C@@H]1NC(=O)[C@H](CO)NC(=O)[C@H]2CCCN2C(=O)[C@H](Cc2ccc(O)cc2)NC(=O)[C@@H]2CSSC[C@H](NC1=O)C(=O)N[C@@H]([C@@H](C)O)C(=O)N[C@@H](C)C(=O)N[C@@H](CO)C(=O)N[C@@H]([C@@H](C)CC)C(=O)N1CCC[C@H]1C(=O)N1CCC[C@H]1C(=O)N[C@@H](CCC(N)=O)C(=O)N2 [Ex. 124] (HELM PEPTIDE1{A.S.I.P.P.Q.C.Y.[dP].S.[Nle].C.T}$PEPTIDE1,PEPTIDE1,7:R3-12:R3|PEPTIDE1,PEPTIDE1,1:R1-13:R2$$$V2.0)		40		0.04
